Measurements: US10179770B2, “Quinolines derivatives as novel anticancer agents” (GENOSCIENCE PHARMA, priority 2013, dated 2019)

What was measured:
Test in all cases: NCI-60 screen (SRB)
Format in all cases: cell-based
[1] = test system: TK-10; settings: TK-10 (Renal)
Outline: (§1)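 Cells grown in RPMI 1640 with 5% FBS were plated, left 24 h, then exposed to five drug concentrations for 48 h at 37 °C. TCA-fixed protein was stained with SRB and read at 515 nm. GI50, TGI and LC50 were derived against time-zero and untreated control absorbances.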

[2] = test system: SNB-19; settings: SNB-19 (CNS)
Outline: as §1

[3] = test system: NCI-H23; settings: NCI-H23 (Non-Small Cell Lung)
Outline: as §1

[4] = test system: T-47D; settings: T-47D (Breast)
Outline: as §1

[5] = test system: Colo205; settings: COLO205 (Colon)
Outline: as §1

[6] = test system: ACHN; settings: ACHN (Renal)
Outline: as §1

[7] = test system: SNB-75; settings: SNB-75 (CNS)
Outline: as §1

[8] = test system: SK-MEL-28; settings: SK-MEL-28 (Melanoma)
Outline: as §1

[9] = test system: SK-MEL-5; settings: SK-MEL-5 (Melanoma)
Outline: as §1

[10] = test system: HT29; settings: HT29 (Colon)
Outline: as §1

[11] = Homo sapiens, read-out: LC50 (the source's name)

CC(C)(C)NC1CCN(c2cc(-c3ccc(Cl)cc3)nc3ccccc23)CC1.Cl.Cl [XII-4, 2-(4-chloro-phenyl)-4-(4-N-tert-butylamino-piperidin-1-yl)quinoline dihydrochloride]
Growth percent at 10 μM [1]: − (cell growth % > 80)
Growth percent at 10 μM [2]: − (cell growth % > 80)
Growth percent at 10 μM [3]: − (cell growth % > 80)
Growth percent at 10 μM [4]: ++ (cell growth 40 > % < 60)
Growth percent at 10 μM [5]: ×××× (cell growth −60 < % > −80)
Growth percent at 10 μM [6]: + (cell growth 60 > % < 80)
Growth percent at 10 μM [7]: ++ (cell growth 40 > % < 60)
Growth percent at 10 μM [8]: ×××× (cell growth −60 < % > −80)
Growth percent at 10 μM [9]: ++++ (cell growth 0 > % < 20)
Growth percent at 10 μM [10]: × (cell growth 0 < % > −20)

CCN(CC)C1CCN(C(C)c2cc(-c3ccccc3)nc3ccccc23)CC1.Cl.Cl (centres unmarked) [XIX-3, 2-phenyl-4-{1-[4-(N,N-diethylamino)piperidin-1-yl]-eth-1-yl}quinoline dihydrochloride]
GI50 ([1]; Homo sapiens): 13 µM
LC50 (concentration causing 50% net cell kill) ([1]; Homo sapiens): 26 µM
TGI [1]: 26 µM
Growth percent at 10 μM [1]: − (cell growth % > 80)
GI50 ([2]; Homo sapiens): 13 µM
CC50 [2, 11]: 59 µM
TGI [2]: 28 µM
Growth percent at 10 μM [2]: − (cell growth % > 80)
GI50 ([3]; Homo sapiens): > 100 µM
CC50 [3, 11]: > 100 µM
TGI [3]: >100 µM
Growth percent at 10 μM [3]: − (cell growth % > 80)
GI50 ([4]; Homo sapiens, T47D): 5 µM
CC50 ([4]; Homo sapiens, T47D, read-out: LC50 (the source's name)): 52 µM
TGI [4]: 19 µM
Growth percent at 10 μM [4]: ++ (cell growth 40 > % < 60)
TGI [5]: 4 µM
Growth percent at 10 μM [5]: ××× (cell growth −40 > % < −60)
GI50 ([5]; Homo sapiens, COLO 205): 2 µM
CC50 ([5]; Homo sapiens, COLO 205, read-out: LC50 (the source's name)): 7 µM
TGI [6]: 23 µM
Growth percent at 10 μM [6]: + (cell growth 60 > % < 80)
GI50 ([6]; Homo sapiens): 11 µM
LC50 (concentration causing 50% net cell kill) ([6]; Homo sapiens): 50 µM
GI50 ([7]; Homo sapiens): 12 µM
CC50 [7, 11]: 55 µM
TGI [7]: 26 µM
Growth percent at 10 μM [7]: +++ (cell growth 20 > % < 40)
GI50 ([8]; Homo sapiens): 2 µM
CC50 [8, 11]: 6 µM
TGI [8]: 3 µM
Growth percent at 10 μM [8]: ××× (cell growth −40 > % < −60)
GI50 ([9]; Homo sapiens): 2 µM
CC50 [9, 11]: 6 µM
TGI [9]: 3 µM
Growth percent at 10 μM [9]: ××××× (cell growth % < −80)
TGI [10]: 7 µM
Growth percent at 10 μM [10]: ++++ (cell growth % < 20)
GI50 ([10]; Homo sapiens, HT-29): 2 µM
CC50 ([10]; Homo sapiens, HT-29, read-out: LC50 (the source's name)): 32 µM
